One assay addresses T1, Toll-like receptor 7 (Homo sapiens, UniProt Q9NYK1).
T1 sequence (Q9NYK1 whole entry): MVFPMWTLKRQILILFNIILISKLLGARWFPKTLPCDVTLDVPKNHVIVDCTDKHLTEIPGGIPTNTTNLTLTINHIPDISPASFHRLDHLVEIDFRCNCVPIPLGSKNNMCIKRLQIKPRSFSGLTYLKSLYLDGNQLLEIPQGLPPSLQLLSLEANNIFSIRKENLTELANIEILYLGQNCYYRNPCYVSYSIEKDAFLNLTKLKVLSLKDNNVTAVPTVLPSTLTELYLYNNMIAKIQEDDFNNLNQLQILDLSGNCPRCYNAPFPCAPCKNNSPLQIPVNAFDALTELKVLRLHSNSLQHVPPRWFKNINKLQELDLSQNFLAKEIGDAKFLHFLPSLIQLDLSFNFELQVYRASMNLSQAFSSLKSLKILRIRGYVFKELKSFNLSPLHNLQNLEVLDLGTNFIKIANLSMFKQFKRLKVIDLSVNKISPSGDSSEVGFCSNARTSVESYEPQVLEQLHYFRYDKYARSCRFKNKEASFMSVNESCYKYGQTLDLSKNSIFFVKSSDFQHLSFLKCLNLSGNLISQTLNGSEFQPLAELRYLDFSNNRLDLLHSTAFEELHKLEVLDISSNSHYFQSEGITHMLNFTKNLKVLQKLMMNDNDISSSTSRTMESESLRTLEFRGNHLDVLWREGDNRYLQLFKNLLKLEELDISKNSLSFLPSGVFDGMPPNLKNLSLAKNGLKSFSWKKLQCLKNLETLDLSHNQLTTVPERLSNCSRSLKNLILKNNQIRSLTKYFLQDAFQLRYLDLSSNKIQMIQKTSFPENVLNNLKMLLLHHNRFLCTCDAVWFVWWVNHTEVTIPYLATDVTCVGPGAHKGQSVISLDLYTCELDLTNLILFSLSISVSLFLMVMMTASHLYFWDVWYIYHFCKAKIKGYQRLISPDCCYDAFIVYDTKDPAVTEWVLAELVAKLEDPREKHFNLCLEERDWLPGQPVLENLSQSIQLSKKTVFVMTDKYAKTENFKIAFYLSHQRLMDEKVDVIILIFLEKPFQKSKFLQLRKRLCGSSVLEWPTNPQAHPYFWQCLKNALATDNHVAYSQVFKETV
The experiment in a line: Agonist activity at TLR7 in human HEK-SEAP reporter cell assessed as NF-kappaB activation. Format: cell-based.

The target in the next assay is T2, Toll-like receptor 8 (Homo sapiens, UniProt Q9NR97).
T2 sequence (Q9NR97 whole entry): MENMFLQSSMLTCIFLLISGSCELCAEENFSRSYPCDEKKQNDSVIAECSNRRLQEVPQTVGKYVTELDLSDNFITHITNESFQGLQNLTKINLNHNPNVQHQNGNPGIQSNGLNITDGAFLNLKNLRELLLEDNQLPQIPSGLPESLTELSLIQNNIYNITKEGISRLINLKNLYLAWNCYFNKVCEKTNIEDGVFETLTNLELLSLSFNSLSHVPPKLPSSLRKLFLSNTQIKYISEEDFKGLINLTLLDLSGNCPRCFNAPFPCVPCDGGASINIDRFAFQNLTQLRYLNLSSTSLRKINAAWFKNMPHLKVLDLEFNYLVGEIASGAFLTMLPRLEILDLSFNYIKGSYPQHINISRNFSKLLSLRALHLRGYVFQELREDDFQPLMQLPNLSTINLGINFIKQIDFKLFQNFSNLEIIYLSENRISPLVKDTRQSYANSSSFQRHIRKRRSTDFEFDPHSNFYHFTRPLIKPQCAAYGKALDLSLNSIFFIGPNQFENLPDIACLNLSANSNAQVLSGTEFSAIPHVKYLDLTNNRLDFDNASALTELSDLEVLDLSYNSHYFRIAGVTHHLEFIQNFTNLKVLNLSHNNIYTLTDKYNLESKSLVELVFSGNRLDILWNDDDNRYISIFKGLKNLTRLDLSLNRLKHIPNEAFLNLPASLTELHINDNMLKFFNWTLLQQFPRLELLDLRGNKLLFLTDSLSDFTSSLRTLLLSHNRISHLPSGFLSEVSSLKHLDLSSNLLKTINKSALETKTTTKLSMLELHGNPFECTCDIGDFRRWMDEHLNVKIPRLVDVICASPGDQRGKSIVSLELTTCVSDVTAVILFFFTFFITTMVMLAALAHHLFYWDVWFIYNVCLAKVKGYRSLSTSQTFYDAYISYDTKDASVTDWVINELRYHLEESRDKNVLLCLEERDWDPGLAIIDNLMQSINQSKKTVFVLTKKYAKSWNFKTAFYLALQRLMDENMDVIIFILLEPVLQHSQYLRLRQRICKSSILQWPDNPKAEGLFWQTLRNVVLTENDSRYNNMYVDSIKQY
The experiment in a line: Agonist activity at TLR8 in human HEK-SEAP reporter cell assessed as NF-kappaB activation. In kind it is cell-based.

Each structure is given as a SMILES string.

The values that follow come from ChEMBL document CHEMBL5143565, “Toll-like receptor 7 and 8 imidazoquinoline-based agonist/antagonist pairs” (Bioorg Med Chem Lett, 2022).

As to `CC(C)Cc1nc2c(N)nc3ccccc3c2n1Cc1ccc(CN)cc1`, the EC50 on Toll-like receptor 7 was determined as 0.21 µM.
For `COC(=O)c1ccc2c(c1)nc(N)c1nc(CC3CC3)n(CC(C)O)c12` (centres undefined), the EC50 on Toll-like receptor 7 is 13.2 µM.
The same measure, in the same setting: to `CC(O)Cn1c(CC2CC2)nc2c(N)nc3ccccc3c21` (centres undefined) belongs 0.99 µM.
Regarding `CC(C)Cc1nc2c(N)nc3ccccc3c2n1CC(C)O` (centres undefined), at Toll-like receptor 8, the EC50 is 27 µM.

A word on the EC50: it is the concentration that produces a half-maximal response.
